Counter-ions that a name gives are not always drawn.
Columns and labels:
P388 leukemia = assay: Therapeutic activity in P388 leukemia treatment (survival); format: in vivo, BDFl female mice; settings: for ILS (%): survival increase vs untreated controls
Procedure: The following tables and the enclosed figures refer to experiments carried out on BDFl mice inoculated with P388 leukemic cells and wherein the effect of DDP-Pd.HCl combination is compared, in terms of toxicity and therapeutic efficacy, with the one of the different components. From Pd-HCl toxicity results, which are reported in Table 1, the 50 mg/kg of Pd.HCl dose was selected for the investigations suited for the evaluation of DDP-Pd.HCl combination toxicity and therapeutic efficacy.

[1] = system: kidneys of P388 leukemic BDFl mice; assay: Histological evaluation of renal damage; format: in vivo
Procedure: Stromal connective, wherein rare and scattered fibroblasts were detected, appeared remarkably thickened with resulting intertubular space increase. Renal corpuscle morphology appeared in a good preservation state in the components thereof and a slight increase of the glomerular chamber was recognized in few corpuscles only.
Immediately after withdrawal, renal parenchyma was fixed with 2.5% glutaraldehyde in 0.1 M Na cacodylate buffer (pH = 7.4) for 120 min.
After washing in the same buffer, the samples were dehydrated with ethanol and embedded in Epon 812. LKB Ultratom III microtome 2 µm sections were stained with aqueous 1% toluidine blue.

[2] = DDP 8 mg/kg i.p. days 1 and 5, vehicle H2O
[3] = DDP 16 mg/kg i.p. day 1, vehicle 0,9% NaCl
[4] = DDP 16 mg/kg i.p. day 1, vehicle H2O
[5] = Pd.HCl 50 mg/kg in H2O i.v., no DDP

Row | Compound | Survivors on day 60 (alive/treated) (P388 leukemia; [2]) | MST (P388 leukemia; DDP 8 mg/kg i.p. days 1 and 5, vehicle H2O, median survival time, untreated controls 12 days) | ILS (%) (P388 leukemia; [2]) | Survivors on day 60 (alive/treated) (P388 leukemia; [3]) | MST (P388 leukemia; DDP 16 mg/kg i.p. day 1, vehicle 0,9% NaCl, median survival time, untreated controls 12 days) | ILS (%) (P388 leukemia; [3]) | Survivors on day 60 (alive/treated) (P388 leukemia; [4]) | MST (P388 leukemia; DDP 16 mg/kg i.p. day 1, vehicle H2O, median survival time, untreated controls 12 days) | ILS (%) (P388 leukemia; [4]) | Hystological evaluation of renal damage ([1]; 8 mg/kg of DDP alone at days 1, 5 and 9, mice killed the 10th day, cortical zone) | MST (P388 leukemia; [5]) | Survivors on day 60 (alive/treated) (P388 leukemia; [5]) | ILS (%) (P388 leukemia; [5]) | antitumor activity (P388 leukemia; procainamide by itself) | Hystological evaluation of renal damage ([1]; mouse, in vivo, 50 mg/kg)
1 | N.N.[Cl][Pt][Cl] [DDP, Cisplatin] | 0/8 | 7 days | -42% | 2/10 | 22 days | 83% | 0/10 | 5 days | -58% | renal parenchyma alterations | – | – | – | – | –
2 | CCN(CC)CCNC(=O)c1ccc(N)cc1 [Pd.HCl, procainamide hydrochloride] | – | – | – | – | – | – | – | – | – | – | 13 days | 0/8 | 8,3% | no antitumor activity | a picture similar to the one observed with DDP only
